# Patent publication US10058619B2, “P97-polynucleotide conjugates” (biOasis Technologies, Inc., priority 2014, dated 2018)
# Experiments:
# [1] = system: mouse model of middle cerebral artery occlusion (MCAO); test: Infarct volume analysis (TTC staining) in mouse model of middle cerebral artery occlusion (MCAO); assay type: in vivo, C57/Bl6 mice; details: pretreated 3 times with 30 mg/kg IV, 1 hour MCAO, 24 hours post reperfusion
# Procedure: The NOX4 gene-targeted p97-siRNA conjugates from Example 1 were tested for their ability to provide neuroprotection in a mouse model of middle cerebral artery occlusion (MCAO) (see, e.g., Chang et al., J Vis Exp. 2761:2011; Althenhöfer et al., Cell. Mol. Life Sci. 69:2327-2343, 2012; and Kleinschnitz et al., PLoS Biol. 8(9):e1000479, 2010).
# C57/Bl6 mice were pretreated 3 times (1 hour interval between each injection) with either PBS or 30 mg/kg of siRNA alone or p97-siRNA via intravenous (IV) injection. Animals were subjected to stroke via MCAO about 1 hour following the last injection, as follows. The external and internal carotid arteries (ECA and ICA, respectively) were dissected and isolated and the common carotid artery (CCA) ligated. An […] 8-0 nylon thread coated in dental silicone was inserted into a small hole in the ECA towards the bifurcation of the CCA. […]
# When the TTC staining was completed, infarct size was measured by a colorimetric staining method. […]
# Absorbance was measured at 485 nm in a spectrophotometer and the values were averaged. Percentage loss in brain TIC staining in the ischemic side of the brain was compared with the contralateral side of the brain of the same animal using the following equation: % loss=100×(1−absorbance of ischemic hemisphere/absorbance of contralateral hemisphere)
# [2] = Brain delivery of AF680-labeled test molecules after IV injection, 3D confocal microscopy of brain sections; assay type: in vivo, Balb/c mice
# Procedure: Test molecules were intravenously injected (via tail vein) in Balb/c mice and 1 hour later the animals were sacrificed as follows: Prior to euthanasia, mice were injected (i.v.) with tomato Lectin-Texas Red ([…]) for 10 min to stain the brain vasculature. Blood was cleared by intracardiac perfusion of 10 ml heparinized saline (1 ml/min). Brains were excised and frozen on dry ice and stored at −80° C. Brains were mounted in Tissue Tek and sectioned ([…], 3 sections/brain) with a cryostat at −2° C. Sections (n=3/brain) were mounted on Superfrost Plus microscope slides, fixed in cold Acetone/MeOH (1:1) for 10 min at RT, and then washed with PBS. Glass coverslips were mounted on sections using Prolong Gold antifade reagent with DAPI (Molecular probes, P36931). 3D confocal microscopy was performed (4 random fields per section were captured).
# Signals for all the sections were calibrated with respect to the PBS control group in order to observe only minimal (but not completely null) AF680 fluorescent signal in those sections (see FIG. 4A).
substance,measurement,setting,value
"siRNA^AF680: negative control: unconjugated NOX4 antisense strand annealed to the AF680-labeled sense strand (antisense AUGUUCACAAAGUCAGGUCTT; sense GACCUGACUUUGUGAACAUTT; sense strand linked to Alexa Fluor 680 via linker, end not given here, further chemistry not given here)",infarct areas / infarct volume in the brain,[1],large infarct areas
same,AF680 signal in the vasculature,"[2]; 10.0 mg/kg IV via tail vein, 1 h, Balb/c mice, brain sections",no AF680 signal was observed
same,perinuclear AF680 signal in the brain parenchyma,"[2]; 10.0 mg/kg IV via tail vein, 1 h, Balb/c mice, signals calibrated to PBS control",not detected
same,"AF680 (red) staining in brain tissues (immunofluorescence imaging, FIGS. 4A-4D)","[2]; mice, following intravenous administration",no AF680 (red) staining
